# Test results from US9801908B2, “Treatment for chitin-containing microorganisms” (BENCHMARK ANIMAL HEALTH LIMITED, priority 2013, dated 2017).
# Read-outs that look alike come from different tables or passages of the source.
# Tests used:
# Saprolegnia spores [1] = assay: Germination and colonization of Saprolegnia spores on sesame seeds; format: cell-based, Saprolegnia parasitica; design: key to grade of germination and colonization of Saprolegnia spores on sesame seeds: Grade 0: no germination no growing mycelia on the sesame seeds; Grade 1: germinating spores no growing mycelia on the sesame seeds; Grade 2: germinating spores very few growing mycelia on the sesame seeds; Grade 3: germinating spores profuse growing mycelia on the sesame seeds; settings: for grade of germination and colonization of Saprolegnia spores on sesame seeds: 48 hours incubation
# Description: BA was diluted to desired concentration in Sterilized Aquarium Water (SAW). […] Saprolegnia zoospores were produced according to the method described previously by Stueland et al. […] Sterilized aquarium water (SAW) was used as a non-treated control and bronopol (Pyceze Vet.® 500 g bronopol/L) was used as a positive control. Each BA concentration and controls were tested in triplicates and incubated at 20° C. 24 hours later, plates were examined microscopically.
# [2] = test system: Atlantic salmon eyed eggs; settings: in vivo
# [3] = test system: Saprolegnia hyphae/mycelium
# Description: The plates were observed microscopically to confirm the attachment of the spores to the sesame seeds and the presence of the early growing mycelia. BA was added at 12 h post infection of the sesame seeds at the same concentrations mentioned above to all tested plates except controls. Plates were incubated further at 20° C. SAW was used as non-treated control and bronopol as positive control. Plates were inspected microscopically after 24 h for advanced mycelial growth.
# [4] = test system: Saprolegnia spores and zoosporangia
# Description: At indicated time points BA was replaced with SAW. The ability of treated spores to germinate and colonize sesame seeds was recorded 24 h following the treatment removal. Treated zoosporangia were also examined for their ability to release spore. Spores and zoosporangia in SAW were used as a non-treated control. Results were confirmed with fluorescent microscopy using SYTO 9 dye (Invitrogen®) 5 mM solution in DMSO.
# Saprolegnia sp. = settings: 4 h once a day
# Description: The experimental design was as described in experiment 1 with the same number of eggs per replicate (N=27±2) and the number of infected eggs introduced per replicate (3 per 27 eggs). The difference was that the eggs were exposed to higher BA concentrations (1, 2, 3, 4 g/L) for 4 h once a day over the course of the experiment which lasted for 14 days in total. After 4 h of treatment the flow of aquarium water was resumed. The same treatment was applied 24 h later and every day up to 14 days. The time between treatments was the same throughout the experiment. The number of dead eggs, presence or absence of infection and hatching rates were recorded over the duration of the experiment.
# Infected dead eggs that were used as source of infection in the BA treated groups and the non-treated control were examined microscopically to observe the effect of BA treatment on the growing mycelia.
# [5] = test system: Saprolegnia spores (S. diclina VIO 2739, S. parasitica VIO 2741, aquarium water); settings: BA 1-4 g/L, 4 hours/day, 14 days
# Description: The ability of BA to protect dead eggs from becoming infected with Saprolegnia spores was investigated. The rationale is that dead eggs may be the first to get infected under natural conditions and act as a source of infection for live eggs. Combined treatment of BA and PA was also tested.
# Five egg groups were used, each group divided equally into 3 smaller sub-groups. 25 live eggs plus 5 dead ones were placed in each of the sub-groups (90 eggs per group). […] In the groups, eggs were supplied with continuous slow water flow of 1 L/min. The aquarium water at the facilities of the Norwegian Veterinary Institute/Norwegian School of Veterinary Science contains Saprolegnia zoospores and was used as source of infection. […] Treatment with BA was carried out as follows. The water flow was stopped and each group, except the non-treated control group, was treated with BA at concentrations of 1, 2, 3, and 4 g/L. The treatment period was 4 hours/day after which water flow was resumed. Dead eggs were inspected daily over 14 days for their colonization with Saprolegnia spores and the presence of growing hypha. Number of dead eggs per group and hatching rates were recorded.
# Saprolegnia spores [6] = settings: BA 0.5 g/L continuous, yolk sac fry, natural outbreak
# Description: The safety of continuous exposure of salmon fry to a low concentration of BA (0.5 g/L) was also investigated to understand what extent BA will protect Atlantic salmon fry from becoming infected by Saprolegnia spores during a natural outbreak of saprolegniosis in the aquarium.
# [7] = treated 96 h in BA, then 24 h in SAW
smiles,measurement,setting,value
"O=[N+]([O-])C(Br)(CO)CO [bronopol, reference compound]",grade of germination and colonization of Saprolegnia spores on sesame seeds,Saprolegnia spores [1]; positive control (Pyceze Vet. 500 g bronopol/L),Grade 0
same,mortality of eggs,"[2]; Atlantic salmon, 2 h",100%
OB(O)O [boric acid],grade of germination and colonization of Saprolegnia spores on sesame seeds,"Saprolegnia spores [1]; ""boric acid g/L"" (concentration not given)",Grade 0
same,germination of inoculated Saprolegnia spores,Saprolegnia spores [1]; BA 1 g/L and above,did not germinate
same,germination and colonization of sesame seeds by Saprolegnia spores,Saprolegnia spores [1]; BA below 0.2 g/L,germinated and colonized sesame seeds
same,growth rate compared to the non-treated control,Saprolegnia spores [1]; BA below 0.2 g/L,slow
same,grade of germination and colonization of Saprolegnia spores on sesame seeds,Saprolegnia spores [1]; boric acid 0.2-0.4 g/L,Grade 2
same,grade of germination and colonization of Saprolegnia spores on sesame seeds,Saprolegnia spores [1]; boric acid 0.5-0.9 g/L,Grade 1
same,grade of germination and colonization of Saprolegnia spores on sesame seeds,Saprolegnia spores [1]; boric acid <0.2 g/L,Grade 3
same,hyphael growth grade,[3]; BA 0.5 g/L and below,grade 1
same,mycelia growth,[3]; BA above 0.5 g/L,no further growth
same,production and release of zoospores from young zoosporangia,"Saprolegnia zoosporangia; 1 g/L BA, 12 and 24 h",interferes with the production and subsequent release of zoospores
same,sign observed in zoosporangia after treatment,"Saprolegnia zoosporangia; 1 g/L BA, 12 and 24 h",Vacuolation of the entire of zoosporangia
same,spore production and release from zoosporangia (FIG. 2 b2),Saprolegnia zoosporangia; 24 hours exposure to boric acid,absence of spore production and release
same,spore release of zoosporangia 24 h after exposure terminated,[4]; BA 1 g/L for 12 h,showed spore release
same,spore release of zoosporangia 24 h after exposure terminated,[4]; BA 1 g/L for 24 h,showed spore release
same,spore release of zoosporangia after exposure terminated,[4]; BA 1 g/L for 72 h,no spore release
same,spore release of zoosporangia after exposure terminated,[4]; BA 1 g/L for 96 h,no spore release
same,colonization of seeds (FIG. 3c-1),"[4]; treated 24 h with BA, then 24 h in SAW",Thin hyphae can be seen projecting out from seeds
same,appearance of zoosporangium (FIG. 3d-2),[4]; [7],condensed staining and a thin wall
same,colonization of seeds (FIG. 3d),[4]; [7],no colonization on seeds
same,hyphal attachment between infected dead and live eggs,"Saprolegnia sp.; BA 1, 2, 3 or 4 g/L, 14 days",No hyphal attachment
same,mycelium on dead eggs used as source of infection,"Saprolegnia sp.; all treated groups, BA 1-4 g/L",scanty attachment of mycelium
same,attachment between dead and live eggs,[5],no attachment
same,hyphal growth on dead eggs,[5],No hyphal growth
same,fry mortality rates compared to non-treated control,Saprolegnia spores [6],Significant reduction
same,impact on hatchability and viability of eggs or fry,[2],no negative impact
